# Molecular target: T1, cathepsin B (Bos taurus, UniProt P07688)
# T1 construct: gene CTSB; Crude bovine spleen cathepsin B (Sigma C6286)
# Assay: colorimetric cathepsin B assay (Na-CBZ-L-lysine p-nitrophenyl ester), […] h preincubation
# Format: biochemical
# Conditions: read-out: IC50 values/μM Cat B
row,Substance,IC50 [µM]
1,"Dichlorido(η^6-biphenyl)(3,5,6-bicyclophosphite-1,2-O-cyclohexylidene-α-D-glucofuranose)ruthenium(II) [compound 6]",8 ± 0.4
2,"dichlorido(η^6-p-cymene)(3,5,6-bicyclophosphite-1,2-O-cyclohexylidene-α-D-glucofuranoside)ruthenium(II) [1b]",4 ± 0.6
3,"dichlorido(η^6-p-cymene)(3,5,6-bicyclophosphite-1,2-O-isopropylidene-α-D-glucofuranose)ruthenium(II) [1a]",1.5 ± 0.2

# Reference: PMC3982558, “Influence of the π-coordinated arene on the anticancer activity of ruthenium(II) carbohydrate organometallic complexes” (Frontiers in Chemistry, 2013)
